Results published in patent publication US10787433B2, “Pyridazine derivatives as EAAT2 activators” (THE BRIGHAM AND WOMEN'S HOSPITAL, INC., priority 2016, dated 2020).

What follows are compounds tested on EAAT2 (assay: EAAT2 Cellular Assay: EAAT2 protein levels in PA-EAAT2 cells by Western blot). Details: 0.25 μM (concentration that reaches maximum activity), 24 hr, relative to DMSO controls.
Assay type: cell-based, human
Procedure: All of the compounds were initially evaluated in PA-EAAT2 cells, a primary astrocyte stably expressing human EAAT2 mRNAs (Kong et al., J Clin Invest. 2014:1255-67). Cells were treated with compound at 0.25 μM, 0.5 μM, 1 μM, 2.5 μM, 5 μM, 10 μM, and 25 μM for 24 hr and then harvested for measuring EAAT2 protein levels by Western blot analysis.
`O=S(=O)(Nc1ccc(-c2ccccn2)nn1)c1ccccc1F` was tested, and the “Fold increase for EAAT2 at indicated concentration (maximum activity)” value (“Fold increase for EAAT2” below) was 2.6 ± 0.2 (0.25 μM) fold. With `O=C(Nc1ccc(-c2ccccn2)nn1)c1cc(F)ccn1` the “Fold increase for EAAT2” value was 1.7 ± 0.1 (0.25 μM) fold. For `O=C(Nc1ccc(-c2ccccn2)nn1)c1ccc(F)cn1`, the “Fold increase for EAAT2” value was 1.9 ± 0.2 (0.25 μM) fold. `O=C(Nc1ccc(-c2ccccn2)nn1)c1cccc(F)n1` was tested, and the “Fold increase for EAAT2” value was 1.6 ± 0.1 (0.25 μM) fold. For `O=C(Nc1ccc(-c2ccccn2)nn1)c1ccc(F)c(Cl)c1`, the “Fold increase for EAAT2” value was 2.2 ± 0.4 (0.25 μM) fold. For `O=C(Nc1ccc(-c2ccccn2)nn1)c1ccc(F)cc1` [drawing 110], the “Fold increase for EAAT2” value was 2.5 ± 0.3 (0.25 μM) fold. With `CNC(=O)COc1ccc(-c2ccccn2)nn1` [drawing 129] the “Fold increase for EAAT2” value was 2.3 ± 0.1 (0.25 μM) fold.

Same assay, conditions: 0.5 μM (concentration that reaches maximum activity), 24 hr, relative to DMSO controls
With `O=S(=O)(Nc1ccc(-c2ccccn2)nn1)c1ccc(F)cc1` the “Fold increase for EAAT2” value was 2.4 ± 0.2 (0.5 μM) fold. With `CN1CCC(C(=O)Nc2ccc(-c3ccccn3)nn2)CC1` the “Fold increase for EAAT2” value was 1.7 ± 0.1 (0.5 μM) fold. `O=C(Nc1ccc(-c2ccccn2)nn1)c1ncccn1` was tested, and the “Fold increase for EAAT2” value was 1.5 ± 0.1 (0.5 μM) fold. `O=C(Nc1ccc(-c2ccccn2)nn1)c1cccnn1` was tested, and the “Fold increase for EAAT2” value was 1.9 ± 0.1 (0.5 μM) fold.

Same assay, conditions: 1 μM (concentration that reaches maximum activity), 24 hr, relative to DMSO controls
For `O=C(Nc1ccc(-c2ccccn2)nn1)c1cccc(Cl)c1`, the “Fold increase for EAAT2” value was 1.5 ± 0.1 (1 μM) fold. For `O=C(Nc1ccc(-c2ccccn2)nn1)c1ccc(Cl)cc1`, the “Fold increase for EAAT2” value was 1.5 ± 0.2 (1 μM) fold.

Same assay, conditions: 2.5 μM (concentration that reaches maximum activity), 24 hr, relative to DMSO controls
In the case of `c1ccc(-c2ccc(OCc3ncco3)nn2)nc1`, the “Fold increase for EAAT2” value is reported as 1.9 ± 0.1 (2.5 μM) fold. With `CN(C)CCOc1ccc(-c2ccccn2)nn1` the “Fold increase for EAAT2” value was 2.9 ± 0.2 (2.5 μM) fold.

Same assay, conditions: 5 μM (concentration that reaches maximum activity), 24 hr, relative to DMSO controls
`c1ccc(COc2ccc(-c3ccccn3)nn2)nc1` was tested, and the “Fold increase for EAAT2” value was 3.0 ± 0.1 (5 μM) fold. For `O=C(Nc1ccc(-c2ccccn2)nn1)c1ccccc1Cl`, the “Fold increase for EAAT2” value was 2.0 ± 0.2 (5 μM) fold. For `CN(C)C(=O)COc1ccc(-c2ccccn2)nn1`, the “Fold increase for EAAT2” value was 2.9 ± 0.2 (5 μM) fold. `O=C(Nc1ccc(-c2ccccn2)nn1)c1cncs1` was tested, and the “Fold increase for EAAT2” value was 1.9 ± 0.1 (5 μM) fold. With `Cn1cncc1COc1ccc(-c2ccccn2)nn1` the “Fold increase for EAAT2” value was 1.7 ± 0.1 (5 μM) fold. In the case of `Cn1ccnc1COc1ccc(-c2ccccn2)nn1`, the “Fold increase for EAAT2” value is reported as 1.9 ± 0.1 (5 μM) fold. `CC(Oc1ccc(-c2ccccn2)nn1)c1ccccn1` (centres unmarked) was tested, and the “Fold increase for EAAT2” value was 1.7 ± 0.1 (5 μM) fold. In the case of `CN(C)CCNc1ccc(-c2ccccn2)nn1`, the “Fold increase for EAAT2” value is reported as 2.4 ± 0.2 (5 μM) fold. With `c1ccc(-c2ccc(NCCCn3ccnc3)nn2)nc1` the “Fold increase for EAAT2” value was 3.3 ± 0.2 (5 μM) fold.

Same assay, conditions: 10 μM (concentration that reaches maximum activity), 24 hr, relative to DMSO controls
With `O=C(Nc1ccc(-c2cccnc2)nn1)c1ccc(F)cc1` the “Fold increase for EAAT2” value was 2.1 ± 0.2 (10 μM) fold. With `Cn1cncc1C(=O)Nc1ccc(-c2ccccn2)nn1` the “Fold increase for EAAT2” value was 1.8± 0.2 (10 μM) fold. In the case of `COc1ccc(C(=O)Nc2ccc(-c3ccccn3)nn2)cc1`, the “Fold increase for EAAT2” value is reported as 2.1 ± 0.2 (10 μM) fold. With `NC(=O)COc1ccc(-c2ccccn2)nn1` the “Fold increase for EAAT2” value was 1.8 ± 0.2 (10 μM) fold. `Cc1ccccc1NC(=O)COc1ccc(-c2ccccn2)nn1` was tested, and the “Fold increase for EAAT2” value was 2.4 ± 0.2 (10 μM) fold. For `CN(C(=O)COc1ccc(-c2ccccn2)nn1)c1ccccc1`, the “Fold increase for EAAT2” value was 2.2 ± 0.3 (10 μM) fold. In the case of `O=C(COc1ccc(-c2ccccn2)nn1)N1CCCCC1`, the “Fold increase for EAAT2” value is reported as 2.6 ± 0.1 (10 μM) fold. `c1ccc(-c2ccc(OCc3nccs3)nn2)nc1` was tested, and the “Fold increase for EAAT2” value was 2.2 ± 0.3 (10 μM) fold. For `c1ccc(CNc2ccc(-c3ccccn3)nn2)cc1`, the “Fold increase for EAAT2” value was 3.1 ± 0.3 (10 μM) fold. In the case of `CNC(=O)COc1ccc(-c2ccccn2)nn1` [drawing 130], the “Fold increase for EAAT2” value is reported as 1.8 ± 0.1 (10 μM) fold.

What follows are compounds tested on EAAT2 (assay: EAAT2 expression in mouse brain after single oral dose (semi-quantitative Western blot)). Details: mice, single dose by oral gavage, brains harvested at 24 h post-treatment.
Assay type: in vivo
Procedure: Mice received a single dose of the compound (n=3/dose) by oral gavage. Brains were harvested at 24 h post-treatment. EAAT2 protein levels were analyzed by semi-quantitative Western blot analysis.
`O=C(Nc1ccc(-c2ccccn2)nn1)c1ccc(F)cc1` [Example 4, 4-Fluoro-N-(6-(pyridin-2-yl)pyridazin-3-yl)benzamide] was tested, and the “EAAT2 protein levels in mouse brain” value was “dose-dependently increased EAAT2 levels”.
